Measurements taken from patent publication US4228292A, “N-Substituted benzothiazolines and benzoxazolines and their use as herbicides and plant growth regulants” (Monsanto Company, priority 1978, dated 1980).

Assays:
soybean plants = assay: plant growth regulating activity on soybean plants; assay type: in vivo, variety Williams; conditions: 2.8 kg/h
Method: A number of soybean plants, variety Williams, were grown from seeds in plastic pots in the greenhouse for a period of one week at which time the plants are thinned to one plant per pot. When the second trifoliate leaf (three weeks) was fully expanded, the plants were treated with a solution of the active ingredient in acetone and water. Aqueous Tween 20 was used as a surfactant.
When the fifth trifoliate leaf (four to five weeks) was fully expanded, the treated plants were compared with the non-treated control plants and the observations recorded.

Panicum Spp = assay: post-emergent herbicidal test; assay type: in vivo; conditions: S; note: ranges in brackets are in %
Method: (§1) The post-emergent tests were conducted as follows:
(§2) The herbicidal active ingredients are applied in spray form to two or three-week old specimens of various plant species. The spray, a solution or wettable powder suspension containing the appropriate rate of herbicidal active ingredient to give the desired test rate and a surfactant, is applied to the plants. The treated plants are placed in a greenhouse and approximately two or four weeks later the effects are observed and recorded. The results are shown in Tables IX and X in which the post-emergent herbicidal rating code is as follows: […]

Rice = assay: post-emergent herbicidal test; assay type: in vivo; conditions: O; note: ranges in brackets are in %
Method: as §1, §2

Crabgrass = assay: post-emergent herbicidal test; assay type: in vivo; conditions: T; note: ranges in brackets are in %
Method: as §1, §2

Hemp Sesbania = assay: post-emergent herbicidal test; assay type: in vivo; conditions: R; note: ranges in brackets are in %
Method: as §1, §2

Wheat = assay: post-emergent herbicidal test; assay type: in vivo; conditions: N; note: ranges in brackets are in %
Method: as §1, §2

Wild Buckwheat = assay: post-emergent herbicidal test; assay type: in vivo; conditions: Q; note: ranges in brackets are in %
Method: as §1, §2

Sorghum = assay: post-emergent herbicidal test; assay type: in vivo; conditions: P; note: ranges in brackets are in %
Method: as §1, §2

Sugar Beet = assay: post-emergent herbicidal test; assay type: in vivo; conditions: M; note: ranges in brackets are in %
Method: as §1, §2

Soybean = assay: post-emergent herbicidal test; assay type: in vivo; conditions: L; note: ranges in brackets are in %
Method: as §1, §2

For `COC(=N)Cn1c(=O)sc2ccc(Cl)cc21` [Compound 27], the “plant growth regulant observations” value (soybean plants) was “Plants died”, the post-emergent herbicidal rating (Panicum Spp; 0.28 kg/h, 2 WAT) was 0 (0-24) and the post-emergent herbicidal rating (Panicum Spp; 1.12 kg/h, 4 WAT) was 0 (0-24). For the same compound, the post-emergent herbicidal rating (Panicum Spp; 5.6 kg/h, 4 WAT) was 0 (0-24), the post-emergent herbicidal rating (Rice; 0.28 kg/h, 2 WAT) was 0 (0-24) and the post-emergent herbicidal rating (Rice; 1.12 kg/h, 4 WAT) was 0 (0-24). For the same compound, the post-emergent herbicidal rating (Rice; 5.6 kg/h, 4 WAT) was 0 (0-24), the post-emergent herbicidal rating (Crabgrass; 0.28 kg/h, 2 WAT) was 0 (0-24) and the post-emergent herbicidal rating (Crabgrass; 1.12 kg/h, 4 WAT) was 0 (0-24). The post-emergent herbicidal rating (Crabgrass; 5.6 kg/h, 4 WAT) was 0 (0-24), the post-emergent herbicidal rating (Hemp Sesbania; 0.28 kg/h, 2 WAT) was 0 (0-24) and the post-emergent herbicidal rating (Hemp Sesbania; 1.12 kg/h, 4 WAT) was 2 (50-74). The post-emergent herbicidal rating (Hemp Sesbania; 5.6 kg/h, 4 WAT) was 4 (100), the post-emergent herbicidal rating (Wheat; 0.28 kg/h, 2 WAT) was 0 (0-24) and the post-emergent herbicidal rating (Wheat; 1.12 kg/h, 4 WAT) was 0 (0-24). For the same compound, the post-emergent herbicidal rating (Wheat; 5.6 kg/h, 4 WAT) was 1 (25-49), the post-emergent herbicidal rating (Wild Buckwheat; 0.28 kg/h, 2 WAT) was 0 (0-24) and the post-emergent herbicidal rating (Wild Buckwheat; 1.12 kg/h, 4 WAT) was 3 (75-99). For the same compound, the post-emergent herbicidal rating (Wild Buckwheat; 5.6 kg/h, 4 WAT) was 4 (100), the post-emergent herbicidal rating (Sorghum; 0.28 kg/h, 2 WAT) was 0 (0-24) and the post-emergent herbicidal rating (Sorghum; 1.12 kg/h, 4 WAT) was 0 (0-24). The post-emergent herbicidal rating (Sorghum; 5.6 kg/h, 4 WAT) was 0 (0-24), the post-emergent herbicidal rating (Sugar Beet; 0.28 kg/h, 2 WAT) was 1 (25-49) and the post-emergent herbicidal rating (Sugar Beet; 1.12 kg/h, 4 WAT) was 3 (75-99). For the same compound, the post-emergent herbicidal rating (Sugar Beet; 5.6 kg/h, 4 WAT) was 3 (75-99), the post-emergent herbicidal rating (Soybean; 0.28 kg/h, 2 WAT) was 1 (25-49) and the post-emergent herbicidal rating (Soybean; 1.12 kg/h, 4 WAT) was 2 (50-74). The post-emergent herbicidal rating (Soybean; 5.6 kg/h, 4 WAT) was 3 (75-99).
